Test results as given in publication PMC4112551 (Journal of biomolecular screening, 2012).
pIC50: −log10 of the molar value.

Target: rhGCPII (extracellular part of human GCPII, amino acids 44–750) (Homo sapiens, UniProt Q04609)
Assay: Fluorescence polarization
Assay type: binding

Chain of rhGCPII (extracellular part of human GCPII, amino acids 44–750) (Q04609 44-750): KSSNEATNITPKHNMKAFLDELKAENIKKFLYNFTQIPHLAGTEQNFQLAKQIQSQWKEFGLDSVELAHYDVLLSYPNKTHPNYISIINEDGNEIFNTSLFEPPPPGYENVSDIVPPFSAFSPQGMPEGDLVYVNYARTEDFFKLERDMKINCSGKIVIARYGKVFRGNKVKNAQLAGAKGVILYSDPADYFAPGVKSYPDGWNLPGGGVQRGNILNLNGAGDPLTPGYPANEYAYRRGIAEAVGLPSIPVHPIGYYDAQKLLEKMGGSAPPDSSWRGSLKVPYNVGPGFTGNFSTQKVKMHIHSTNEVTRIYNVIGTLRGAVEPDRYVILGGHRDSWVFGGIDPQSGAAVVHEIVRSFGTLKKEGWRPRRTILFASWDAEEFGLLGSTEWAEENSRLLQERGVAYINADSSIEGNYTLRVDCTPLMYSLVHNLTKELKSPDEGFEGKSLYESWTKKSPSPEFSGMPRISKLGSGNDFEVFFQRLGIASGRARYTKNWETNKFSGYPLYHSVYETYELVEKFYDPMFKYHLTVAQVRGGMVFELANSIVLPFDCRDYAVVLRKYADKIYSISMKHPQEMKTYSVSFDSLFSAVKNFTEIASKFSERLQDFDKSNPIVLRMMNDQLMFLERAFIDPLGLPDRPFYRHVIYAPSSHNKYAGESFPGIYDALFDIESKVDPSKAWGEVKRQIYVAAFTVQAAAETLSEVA

Row | Compound | pIC50
1 | N[C@@H](CCC(=O)O)C(=O)O [glutamic acid] | 3.06
2 | N[C@@H](Cn1oc(=O)[nH]c1=O)C(=O)O [quisqualate] | 4.78
